From patent US9279010B2, “Treatment of inflammatory bowel diseases with mammal beta defensins” (Defensin Therapeutics ApS, priority 2008, dated 2016)
Marks after values point to notes of the source that are not given here.

Experiments:
[1] = tested on: Dextran Sodium Sulphate (DSS)-induced colitis; experiment: 10-Day DSS-induced colitis model in the mouse (Example 2): Disease Activity Index and colon histology score; format: in vivo, mouse (male C57BL/6); design: key to DAI score: DAI score from stool, bleeding, weight loss; daily maximum 12; conditions: for DAI score: 1 mg/kg p.o. daily
Description: The aim of the following study was to determine the anti-inflammatory activity of human beta defensin 2 in an acute (10-days) model of inflammatory bowel disease (colitis) induced by oral dextran sodium sulphate (DSS) administration in the mouse.
Animals were divided into 5 experimental groups.
Colitis was induced in mice by supplementing their drinking water with DSS 2% for 7 days.
On Day 1 all mice were weighed and marked according to their experimental groups. The drinking bottle of each cage was filled with the DSS solution, making sure all bottle lids were mounted properly and that none were congested.
On Day 3 any remaining solution in the bottles was emptied and refilled with fresh DSS solution. This procedure was repeated again on Day 5.
On Day 8 any remaining solution was discarded and replaced with autoclaved water.
Animals were sacrificed 2 days later on Day 10.
Daily clinical assessment of DSS-treated animals was carried out, with the calculation of a validated clinical Disease Activity Index (DAI) ranging from 0 to 4 according to the following parameters: stool consistency, presence or absence of rectal bleeding and weight loss:
Bodyweight loss was calculated as the percent difference between the original bodyweight (Day 1) and the actual bodyweight on each experimental day (2-10).
The appearance of diarrhoea is defined as mucus/faecal material adherent to anal fur. Rectal bleeding is defined as diarrhoea containing visible blood/mucus or gross rectal bleeding. The maximum score of the DAI each day is 12.
Their colons were removed and their length and weight measured after exclusion of the caecum.
Two sections (proximal and distal) of colon were taken from each animal and preserved in neutral buffered formalin for subsequent histological analysis (haematoxylin and eosin staining) according to the following scoring system:
Two sections (proximal and distal) of colon were taken from each animal, processed for histological analysis (haematoxylin and eosin staining) and scored by a blind observer according to the histological scoring system described above.
(§1) The statistical significance of the results was evaluated using the statistics program Graphpad Instat 3. The difference between groups for disease activity index and histological score was evaluated by Kruskal-Wallis test for unpaired data plus post-test Dunn to allow for multiple comparisons. A value of p<0.05 was taken as significant.

[2] = tested on: Dextran Sodium Sulphate (DSS)-induced colitis; experiment: 10-Day DSS-induced colitis model in the mouse (Example 3): Disease Activity Index and colon histology score; format: in vivo
Experimental: Example 3 was carried out essentially as described in Example 2. The differences are indicated below.
Animals were divided into 9 experimental groups. […]
Methylprednisolone was given orally at a dose of 1 mg/kg (group H) and 10 mg/kg (group J) in a dosing volume of 5 ml/kg body weight, once daily for 10 consecutive days.
Two sections (proximal and distal) of colon were taken from each animal, processed for histological analysis (haematoxylin and eosin staining), and scored by a blind observer according to the scoring system described above.
as §1, with “data+post-test of” for “data plus post-test”, “Dunn” for “Dunn to allow”, “significant. In the tables above, significant differences versus the corresponding control (vehicle) group are denoted as: *p<0.05, **p<0.01, ***p<0.001.” for “significant.”

TNF-α = experiment: Determination of TNF-alpha concentration in colonic tissue samples by ELISA (Example 2); format: in vivo, mouse (male C57BL/6); conditions: 1 mg/kg p.o. daily for 10 days
Experimental: (§2) An additional sample of colon was obtained from each animal and homogenised in PBS (100 mg tissue/ml PBS) containing 1% bovine serum albumin (BSA) and a protease inhibitor cocktail (1 ml/20 g tissue). The homogenate was then be centrifuged at 1400 rpm for 10 min and the supernatant stored at −20° C. for subsequent determination of TNF-α concentration by specific enzyme immunoassay (ELISA).
[…]

C[C@H]1C[C@@H]2[C@H]([C@@H](O)C[C@@]3(C)[C@H]2CC[C@]3(O)C(=O)COC(=O)CCC(=O)O)[C@@]2(C)C=CC(=O)C=C12 [Methylprednisolone 21-hemisuccinate]
Histology Score Distal Colon ([1]; 1 mg/kg p.o. daily for 10 days): 3.70
Histology Score Proximal Colon ([1]; 1 mg/kg p.o. daily for 10 days): 2.80*
DAI score ([1]; Day 1): 0.00
DAI score ([1]; Day 2): 0.10
DAI score ([1]; Day 3): 0.00
DAI score ([1]; Day 4): 2.60
DAI score ([1]; Day 5): 2.50
DAI score ([1]; Day 6): 2.60
DAI score ([1]; Day 7): 3.10
DAI score ([1]; Day 8): 2.50*
DAI score ([1]; Day 9): 3.80*
DAI score ([1]; Day 10): 4.90**
Histology Score Distal Colon ([2]; 1 mg/kg p.o. once daily): 3.00***
Histology Score Proximal Colon ([2]; 1 mg/kg p.o. once daily): 1.40
DAI score ([2]; 1 mg/kg p.o. once daily, Day 1): 0.00
DAI score ([2]; 1 mg/kg p.o. once daily, Day 2): 0.50
DAI score ([2]; 1 mg/kg p.o. once daily, Day 3): 0.50
DAI score ([2]; 1 mg/kg p.o. once daily, Day 4): 0.40
DAI score ([2]; 1 mg/kg p.o. once daily, Day 5): 1.10
DAI score ([2]; 1 mg/kg p.o. once daily, Day 6): 3.80
DAI score ([2]; 1 mg/kg p.o. once daily, Day 7): 5.90
DAI score ([2]; 1 mg/kg p.o. once daily, Day 8): 6.40
DAI score ([2]; 1 mg/kg p.o. once daily, Day 9): 5.60*
DAI score ([2]; 1 mg/kg p.o. once daily, Day 10): 5.60*
Histology Score Distal Colon ([2]; 10 mg/kg p.o. once daily): 2.70***
Histology Score Proximal Colon ([2]; 10 mg/kg p.o. once daily): 1.40
DAI score ([2]; 10 mg/kg p.o. once daily, Day 1): 0.00
DAI score ([2]; 10 mg/kg p.o. once daily, Day 2): 0.30
DAI score ([2]; 10 mg/kg p.o. once daily, Day 3): 0.70
DAI score ([2]; 10 mg/kg p.o. once daily, Day 4): 0.80
DAI score ([2]; 10 mg/kg p.o. once daily, Day 5): 1.30
DAI score ([2]; 10 mg/kg p.o. once daily, Day 6): 2.00
DAI score ([2]; 10 mg/kg p.o. once daily, Day 7): 3.20**
DAI score ([2]; 10 mg/kg p.o. once daily, Day 8): 4.80**
DAI score ([2]; 10 mg/kg p.o. once daily, Day 9): 5.20*
DAI score ([2]; 10 mg/kg p.o. once daily, Day 10): 4.00***
Colon TNF-α concentration (TNF-α): 1833 pg/g tissue
